Assay [1] deals with L929. Briefly: Anti-necroptotic activity against TNFalph/Z-VAD-FMK-induced mouse L929 cells assessed as cell viability measured after 19 to 21 hrs by CellTiter-Glo luminescent cell viability assay. The format is functional, cell-based. On the technique in general: ATP-based viability assays read luminescence as a measure of living cells.
In assay [2] the test system is U-937. Briefly: Anti-necroptotic activity against TNFalph/Z-VAD-FMK-induced human U-937 cells assessed as cell viability measured after 19 to 21 hrs by CellTiter-Glo luminescent cell viability assay. The format is functional, cell-based.
Assay [3] concerns the target T1, Receptor-interacting serine/threonine-protein kinase 1 (Mus musculus) (UniProt Q60855).
T1 sequence (whole entry): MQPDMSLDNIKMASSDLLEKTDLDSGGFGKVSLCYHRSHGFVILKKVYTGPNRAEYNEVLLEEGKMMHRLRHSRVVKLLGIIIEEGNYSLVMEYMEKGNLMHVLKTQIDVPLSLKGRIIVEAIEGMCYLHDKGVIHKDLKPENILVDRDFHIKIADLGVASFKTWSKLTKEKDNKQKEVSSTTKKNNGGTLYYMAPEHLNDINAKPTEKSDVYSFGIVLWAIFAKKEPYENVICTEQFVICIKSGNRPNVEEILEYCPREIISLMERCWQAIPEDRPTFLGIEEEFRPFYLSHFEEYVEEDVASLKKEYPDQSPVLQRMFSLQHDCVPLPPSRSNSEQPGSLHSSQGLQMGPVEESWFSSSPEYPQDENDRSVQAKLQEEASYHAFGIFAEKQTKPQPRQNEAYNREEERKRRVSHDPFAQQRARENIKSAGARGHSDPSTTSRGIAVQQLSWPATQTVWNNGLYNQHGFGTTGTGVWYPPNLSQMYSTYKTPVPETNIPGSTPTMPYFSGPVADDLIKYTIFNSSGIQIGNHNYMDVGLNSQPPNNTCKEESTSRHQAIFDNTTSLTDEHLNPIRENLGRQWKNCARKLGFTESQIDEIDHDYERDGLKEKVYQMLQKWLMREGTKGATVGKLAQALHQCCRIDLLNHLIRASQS
Briefly: Inhibition of RIPK1 in mouse L929 cells assessed as TZ-induced RIPK3 phosphorylation at 1 uM measured upto 4 hrs by Western blot analysis. The assay is classed as cell-based. Conditions: time hrs <=4. (In general: Immunoblotting shows a protein as a band on a membrane.)

Assay [4] relates to L929. Briefly: Anti-necroptotic activity in mouse L929 cells assessed as inhibition of mTNFalpha-induced necroptosis measured after 9 hrs. The assay is classed as functional.
Assay [5] concerns the target T1, Receptor-interacting serine/threonine-protein kinase 1 (Mus musculus). Briefly: Inhibition of RIPK1 in mouse L929 cells assessed as TZ-induced MLKL phosphorylation at 1 uM measured upto 4 hrs by Western blot analysis. The format is cell-based. As to conditions: time hrs <=4.
Assay [6] addresses T2, Receptor-interacting serine/threonine-protein kinase 1 (Homo sapiens) (UniProt Q13546).
T2 sequence (whole entry): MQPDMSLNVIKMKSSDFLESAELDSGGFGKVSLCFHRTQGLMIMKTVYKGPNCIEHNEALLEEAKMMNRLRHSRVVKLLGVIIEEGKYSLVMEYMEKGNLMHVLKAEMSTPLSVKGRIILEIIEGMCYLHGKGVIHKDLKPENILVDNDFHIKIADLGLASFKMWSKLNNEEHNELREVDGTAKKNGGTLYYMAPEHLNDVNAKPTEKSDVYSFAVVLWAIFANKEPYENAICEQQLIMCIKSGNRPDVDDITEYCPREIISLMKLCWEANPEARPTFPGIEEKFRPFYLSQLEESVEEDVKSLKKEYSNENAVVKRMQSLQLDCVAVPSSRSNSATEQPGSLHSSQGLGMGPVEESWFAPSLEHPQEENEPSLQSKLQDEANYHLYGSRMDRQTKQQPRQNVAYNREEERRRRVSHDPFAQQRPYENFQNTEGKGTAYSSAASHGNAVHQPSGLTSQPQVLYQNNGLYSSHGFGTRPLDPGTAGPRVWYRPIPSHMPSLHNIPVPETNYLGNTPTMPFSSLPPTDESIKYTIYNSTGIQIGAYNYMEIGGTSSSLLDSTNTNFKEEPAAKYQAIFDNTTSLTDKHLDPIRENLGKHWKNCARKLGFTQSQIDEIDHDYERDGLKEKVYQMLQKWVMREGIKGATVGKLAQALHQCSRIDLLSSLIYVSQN
Briefly: Inhibition of RIPK1 in human HT-29 cells assessed as inhibition of TSZ-induced MLKL phosphorylation at 1 uM measured upto 4 hrs by Western blot analysis. The assay is classed as cell-based. As to conditions: time hrs <=4.

Assay [7] concerns the target T2, Receptor-interacting serine/threonine-protein kinase 1 (Homo sapiens). Briefly: Inhibition of RIPK1 in human HT-29 cells assessed as inhibition of TSZ-induced RIPK3 phosphorylation at 1 uM measured upto 4 hrs by Western blot analysis. As to conditions: time hrs <=4. The assay is classed as cell-based.
Assay [8] relates to HT-29. Briefly: Anti-necroptotic activity in human HT-29 cells assessed as inhibition of TSZ induced necroptosis at 0.25 uM measured after 12 hrs. The format is functional. On the set-up: scale not given: the % may be the effect or the level left.
The subject of assay [9] is HT-29. Briefly: Anti-necroptotic activity in human HT-29 cells assessed as inhibition of TNFalpha/TS induced necroptosis uM measured after 36 hrs. The format is functional, cell-based.
The subject of assay [10] is HT-29. Briefly: Anti-necroptotic activity in human HT-29 cells assessed as inhibition of TSZ induced necroptosis at 2.5 uM measured after 12 hrs. The assay is classed as functional, cell-based.
The test system of assay [11] is L929. Briefly: Anti-necroptotic activity in mouse L929 cells assessed as inhibition of TZ-induced necroptosis measured after 9 hrs. The format is functional, cell-based.
For assay [12], the target named is T2, Receptor-interacting serine/threonine-protein kinase 1 (Homo sapiens). Briefly: Inhibition of RIPK1 in human HT-29 cells assessed as inhibition of TSZ-induced RIPK1 phosphorylation at 1 uM measured upto 4 hrs by Western blot analysis. The format is cell-based. As to conditions: time hrs <=4.
In assay [13] the target is Receptor-interacting serine/threonine-protein kinase 3 (Homo sapiens, UniProt Q9Y572). Briefly: Inhibition of human wild type RIPK3 (M1 to Q307) expressed in bacterial system by kinomescan assay.
Sequence of Receptor-interacting serine/threonine-protein kinase 3 (Q9Y572 whole entry): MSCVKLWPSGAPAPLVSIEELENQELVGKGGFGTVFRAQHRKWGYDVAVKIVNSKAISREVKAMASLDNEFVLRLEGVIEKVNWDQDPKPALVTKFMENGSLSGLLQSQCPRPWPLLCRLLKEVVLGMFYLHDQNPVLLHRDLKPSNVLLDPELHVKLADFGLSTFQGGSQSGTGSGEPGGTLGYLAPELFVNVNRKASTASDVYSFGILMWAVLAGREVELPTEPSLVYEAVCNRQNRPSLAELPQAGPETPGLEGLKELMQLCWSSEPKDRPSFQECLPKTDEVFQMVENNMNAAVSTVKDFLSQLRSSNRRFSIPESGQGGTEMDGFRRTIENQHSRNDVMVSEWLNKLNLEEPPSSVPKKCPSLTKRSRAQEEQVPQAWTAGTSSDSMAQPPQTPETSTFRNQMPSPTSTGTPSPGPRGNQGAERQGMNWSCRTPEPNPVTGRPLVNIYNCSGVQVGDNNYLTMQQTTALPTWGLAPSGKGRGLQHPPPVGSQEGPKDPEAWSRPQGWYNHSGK
Assay [14] concerns HT-29. Briefly: Anti-necroptotic activity in human HT-29 cells assessed as inhibition of TNFalpha/Z-VAD-fmk (TCZ)-induced necroptosis pretreated for 8 to 12 hrs. The format is functional, cell-based.
For assay [15], the target named is T3, Receptor-interacting serine/threonine-protein kinase 1 (Homo sapiens, UniProt Q13546).
T3 sequence (Q13546 whole entry): T2 sequence (whole entry)
Briefly: Inhibition of human wild type RIPK1 (M1 to K305) expressed in bacterial system by kinomescan assay.

Assay [16] deals with HT-29. Briefly: Anti-necroptotic activity in human HT-29 cells assessed as inhibition of TSZ induced necroptosis measured after 12 hrs. The assay is classed as functional, cell-based. Conditions: dose 0.025-25 µM.

As usually defined, the IC50 is the concentration at which inhibition is half-maximal. As usually defined, the inhibition is the change of the read-out against control, counted positive when it falls. One may read the Kd as a measure of binding affinity in units of concentration. Broadly, the EC50 is the concentration at which the effect is half-maximal.

Calls of active or inactive are those of the source. The calls are words filed in the database; no cut-off is given here. Bounds are passed on as bounds.

On to `CC(C)(C)C(=O)N1N=CC[C@H]1c1ccccc1`, for which the IC50 in assay [1] amounted to 3.1 nM.
As for `CN1C(=O)[C@@H](NC(=O)c2cc(Cc3ccccc3)on2)COc2ccccc21`, the IC50 in assay [2] was 10 nM.
As for `CC1(C)C[C@@H]1C(=O)Nc1nc2ccc(Oc3ccc(F)c(NC(=O)Cc4cccc(C(F)(F)F)c4)c3)cc2s1`, the inhibition entry in assay [3], in assay [5], in [6], in assay [7], in [10] and in assay [12] was “Active” in each case. Besides, the “inhibition (INH)” value in [4] was 100%. For the same compound, the Activity was 90% in assay [8], “Dose-Dependent Effect” in assay [9] and “Dose-Dependent Effect” in [11]. Also, the figures for the Kd in assay [13] and in [15] were 145 nM and 430 nM, respectively. In addition, the EC50 in assay [14] stood at 150 nM.
Take `CN1C(=O)[C@H](NC(=O)c2cc(Cc3ccccc3)on2)COc2ccccc21`: the IC50 in [2] is greater than 10000 nM.
On to `CC1(C)C[C@H]1C(=O)Nc1nc2ccc(Oc3ccc(F)c(NC(=O)Cc4cccc(C(F)(F)F)c4)c3)cc2s1`, for which the inhibition entry in assay [3], in [5], in assay [6], in [7], in [10] and in assay [12] was “Active” throughout. Moreover, the “inhibition (INH)” value in assay [4] is 100%. The Activity result in [9] and in assay [11] was “Dose-Dependent Effect” each time. For the same compound, the figures for the Kd in [13] and in assay [15] were 650 nM and 1700 nM, respectively. In addition, the EC50 in assay [14] amounted to 290 nM.
Consider `CC(C)(C)C(=O)N1N=CC[C@@H]1c1ccccc1`, for which the IC50 in assay [2] was greater than 10000 nM.
For the compound `CC1(C)CC1C(=O)Nc1nc2ccc(Oc3ccc(F)c(NC(=O)Cc4cccc(C(F)(F)F)c4)c3)cc2s1` (racemic), the inhibition in assay [3] and in assay [5] was 100% throughout. Besides, the “inhibition (INH)” value in assay [4] turned out to be 100%. Further, the inhibition result in assay [6], in assay [7] and in assay [12] was “Active” each time. Moreover, the Activity entry in assay [16], in assay [9] and in [11] was “Dose-Dependent Effect” throughout. For the same compound, the Kd was found to be 270 nM in [13] and 480 nM in assay [15]. The EC50 in [14] is 310 nM.

For the origin of these results see ChEMBL document CHEMBL4819126, “Enantiomeric profiling of a chiral benzothiazole necroptosis inhibitor” (Bioorg Med Chem Lett, 2021).
